We go through 19 compounds from PubChem BioAssay (NCI).

“And” between values parts separate entries of the source, which are not always exact repeats. Equal entries are not always repeated.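 96-well plates; 48 h exposure; 5 concentrations. Endpoints by linear interpolation between flanking doses. Not reached: highest tested concentration assigned. Here, GI50 denotes the concentration required for 50% inhibition of growth. The concentration for full growth arrest is given as TGI.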

Among the test systems are DU-145 prostate; EKVX NSCLC; MALME-3M melanoma; MOLT-4 leukemia; NCI/ADR-RES ovarian; RXF 393 renal; SK-MEL-28 melanoma; CAKI-1 renal; TK-10 renal; HL-60(TB) leukemia.
Experiment in all cases: NCI-60 cell line screen, 48 h

`CCN(CC)CCCNC(=O)c1c2c(n3ccccc13)C(=O)c1ncccc1C2=O`: the GI50 with DU-145 prostate was 1.23 µM; with EKVX NSCLC, 1.31 µM; in the test on MALME-3M melanoma, 0.0823 µM; in the test on MOLT-4 leukemia it was 0.604 µM; in the test with NCI/ADR-RES ovarian it was 3.02 µM; with RXF 393 renal, 1.16 µM. In addition, the GI50 in the test on SK-MEL-28 melanoma was 2.49 µM. Also, the TGI in the test with DU-145 prostate is 2.56 µM; in the test on EKVX NSCLC, 3.11 µM; in the test on MALME-3M melanoma it was 0.425 µM; with MOLT-4 leukemia, above 100 µM; in the test with NCI/ADR-RES ovarian, 23.4 µM; in the test on RXF 393 renal it was 3.13 µM. This compound gave a TGI in the test with SK-MEL-28 melanoma of 8.64 µM.
In the case of `O=Cc1cccc2c1Oc1c(cccc1C(=O)O)S2`, the TGI was above 100 µM in the test on CAKI-1 renal; above 100 µM in the test on DU-145 prostate; above 100 µM with EKVX NSCLC; above 100 µM in the test with MALME-3M melanoma; 68.1 µM in the test on MOLT-4 leukemia; above 100 µM with NCI/ADR-RES ovarian. Moreover, the TGI in the test on SK-MEL-28 melanoma and in the test on TK-10 renal was above 100 µM each time.
Take `C=C(Nc1ccc([N+](=O)[O-])cc1[N+](=O)[O-])c1c/c(=N\NC(N)=S)c2ccccc2o1`: the TGI in the test with CAKI-1 renal, in the test with DU-145 prostate, in the test with EKVX NSCLC, with HL-60(TB) leukemia, in the test with MOLT-4 leukemia and with NCI/ADR-RES ovarian was above 100 µM throughout. The TGI with RXF 393 renal, in the test on SK-MEL-28 melanoma and with TK-10 renal was above 100 µM each time.
Take `Cc1cc(C)c(Cn2cnc3c(Cl)ncnc32)c(C)c1CCl`: the GI50 was above 100 µM in the test with EKVX NSCLC; 27.2 µM with HL-60(TB) leukemia; 23.3 µM with MOLT-4 leukemia; above 100 µM with NCI/ADR-RES ovarian; above 100 µM in the test with RXF 393 renal. Besides, the TGI in the test on EKVX NSCLC is above 100 µM; in the test with HL-60(TB) leukemia, 59.9 µM; in the test with MOLT-4 leukemia, 63.4 µM; in the test with NCI/ADR-RES ovarian it was above 100 µM; in the test with RXF 393 renal, above 100 µM.
`COc1cccc(/C=C/C(=O)c2ccc(Cl)cc2Cl)c1`: the GI50 is 13.1 µM in the test on CAKI-1 renal; 9.42 µM in the test on DU-145 prostate; 13.5 µM with EKVX NSCLC; 8.9 µM in the test on HL-60(TB) leukemia; 0.773 µM in the test on MOLT-4 leukemia; 11.6 µM in the test with NCI/ADR-RES ovarian. The GI50 in the test on RXF 393 renal was 9.44 µM; with SK-MEL-28 melanoma, 12.9 µM; in the test with TK-10 renal, 12.8 µM. Moreover, the TGI with CAKI-1 renal was 29.6 µM; with DU-145 prostate, 17.3 µM; in the test on EKVX NSCLC it was 25.8 µM; with HL-60(TB) leukemia, above 50 µM; in the test with MOLT-4 leukemia, above 50 µM; in the test with NCI/ADR-RES ovarian it was 33.1 µM. Further, the figures for the TGI with RXF 393 renal, in the test on SK-MEL-28 melanoma and with TK-10 renal were 20.5 µM, 30.2 µM and above 50 µM, respectively.
As for `COc1ccc(/C=N\Nc2ccc([N+](=O)[O-])cn2)cc1OC`, the GI50 in the test on DU-145 prostate was above 100 µM; with EKVX NSCLC, above 100 µM; in the test on MALME-3M melanoma, above 100 µM; in the test with MOLT-4 leukemia, above 100 µM; in the test with NCI/ADR-RES ovarian it was above 100 µM; in the test on RXF 393 renal it was 3.65 µM. The GI50 is above 100 µM with SK-MEL-28 melanoma and 3.18 µM in the test with TK-10 renal. Moreover, the TGI with DU-145 prostate was above 100 µM; in the test with EKVX NSCLC, above 100 µM; in the test with MALME-3M melanoma it was above 100 µM; with MOLT-4 leukemia, above 100 µM; in the test with NCI/ADR-RES ovarian, above 100 µM; with RXF 393 renal, 16.7 µM. For the same compound, the TGI is above 100 µM with SK-MEL-28 melanoma and 7.73 µM in the test with TK-10 renal.
As for `CC[N+]1(C)CCC(O)(c2ccc(OC)cc2)C(C(=O)c2ccc(OC)cc2)C1` (stereo unspecified), the TGI with CAKI-1 renal is 11 µM; in the test with DU-145 prostate, 32.7 µM; in the test with EKVX NSCLC it was 41.6 µM; in the test on HL-60(TB) leukemia, 8.9 µM; with MALME-3M melanoma, 17.2 µM; in the test on MOLT-4 leukemia, above 21.1 µM. The TGI worked out at 23.9 µM in the test with RXF 393 renal, 29.3 µM in the test with SK-MEL-28 melanoma and 20.4 µM with TK-10 renal.
Consider `Cc1cn2c(/C=N/N=C(N)N)c(-c3cccs3)nc2s1`, for which the GI50 in the test with CAKI-1 renal is 13.7 µM; in the test with EKVX NSCLC, 8.8 µM; in the test with MOLT-4 leukemia, 2.37 µM; with NCI/ADR-RES ovarian, 15.3 µM; in the test with RXF 393 renal, 10.2 µM; in the test on TK-10 renal it was 12.9 µM. The TGI in the test on CAKI-1 renal worked out at 27.5 µM; in the test with EKVX NSCLC, 21.1 µM; in the test on MOLT-4 leukemia, 4.65 µM; in the test with NCI/ADR-RES ovarian it was 28.7 µM; in the test with RXF 393 renal it was 46.2 µM; in the test on TK-10 renal it was 26 µM.
On to `SCCSCCCSCCS`, for which the TGI was above 100 µM in the test with DU-145 prostate; above 100 µM in the test with EKVX NSCLC; 45.6 µM in the test on HL-60(TB) leukemia; 31.2 µM with MOLT-4 leukemia; above 100 µM in the test on NCI/ADR-RES ovarian; above 100 µM in the test on SK-MEL-28 melanoma.
In the case of `CO[C@H](C(=O)[C@@H](O)[C@@H](C)O)[C@@H]1Cc2cc3cc(OC4CC(OC5CC(O)C(O)C(C)O5)C(O)C(C)O4)c(C)c(O)c3c(O)c2C(=O)[C@H]1OC1CC(OC2CC(OC3CC(C)(O)C(O)C(C)O3)C(O)C(C)O2)C(O)C(C)O1` (stereo partly specified), the GI50 in the test with CAKI-1 renal is 0.11 µg/mL and 0.0722 µg/mL; in the test on EKVX NSCLC, 0.042 µg/mL and 0.0335 µg/mL; in the test with HL-60(TB) leukemia, 0.05 µg/mL and 0.0761 µg/mL; with MALME-3M melanoma, 0.0146 µg/mL and 0.0159 µg/mL; with MOLT-4 leukemia, 0.0223 µg/mL; in the test on NCI/ADR-RES ovarian, 23 µg/mL and 0.633 µg/mL. Moreover, the GI50 was 0.0201 µg/mL with RXF 393 renal; 0.02 µg/mL and 0.0182 µg/mL in the test on SK-MEL-28 melanoma; 0.0792 µg/mL and 0.288 µg/mL with TK-10 renal.
For the compound `COc1cc(CNc2ccccc2C(=O)N2CCN(C(=O)c3cc(-c4cc(OC)c(OC)c(OC)c4)n4nc(-c5ccccc5)cc4n3)CC2)cc(OC)c1OC`, the GI50 with CAKI-1 renal was 1.39 µM; in the test on DU-145 prostate, 3.96 µM; in the test on EKVX NSCLC, 4.96 µM; in the test on HL-60(TB) leukemia, 1.98 µM; in the test with MOLT-4 leukemia, 3.32 µM; in the test with NCI/ADR-RES ovarian, 1.95 µM. The GI50 is 2.32 µM in the test with RXF 393 renal, 5.24 µM with SK-MEL-28 melanoma and 6.85 µM with TK-10 renal. Also, the TGI with CAKI-1 renal was above 100 µM; in the test with DU-145 prostate, above 100 µM; in the test with EKVX NSCLC, above 100 µM; with HL-60(TB) leukemia, above 100 µM; with MOLT-4 leukemia it was above 100 µM; in the test with NCI/ADR-RES ovarian, 5.76 µM. Further, the TGI is 7.54 µM with RXF 393 renal, above 100 µM in the test with SK-MEL-28 melanoma and above 100 µM in the test on TK-10 renal.
Regarding `C/C=C/CC(C)[C@@H](O)[C@H](NC)C(=O)O` (stereo partly specified), the TGI with CAKI-1 renal, in the test with EKVX NSCLC, in the test on HL-60(TB) leukemia, in the test with MALME-3M melanoma, in the test with MOLT-4 leukemia and in the test on RXF 393 renal was above 100 µM throughout. The TGI in the test on SK-MEL-28 melanoma and in the test with TK-10 renal was above 100 µM throughout.
On to `Cn1c(=O)c2nc(-c3ccc(Cl)cc3)oc2n(C)c1=O`, for which the TGI in the test on CAKI-1 renal, with EKVX NSCLC, in the test with HL-60(TB) leukemia, in the test with MALME-3M melanoma, in the test with MOLT-4 leukemia and in the test with RXF 393 renal was above 100 µM in each case. Also, the TGI with SK-MEL-28 melanoma and in the test on TK-10 renal was above 100 µM throughout.
As for `CC1=NN(C(=O)c2ccc([N+](=O)[O-])cc2)C(=O)C1N=Nc1ccccc1C(=O)O` (stereo unspecified), the TGI in the test with CAKI-1 renal, in the test on EKVX NSCLC, in the test on HL-60(TB) leukemia, with MALME-3M melanoma, with MOLT-4 leukemia and in the test on RXF 393 renal was above 100 µM each time. Moreover, the TGI in the test on SK-MEL-28 melanoma and in the test with TK-10 renal was above 100 µM each time.
`O=[N+]([O-])C1Cc2ccccc2OC1c1ccccc1` (stereo unspecified): the TGI is 99 µM with CAKI-1 renal; above 100 µM with EKVX NSCLC; above 100 µM in the test with HL-60(TB) leukemia; above 100 µM in the test with MALME-3M melanoma; 70.7 µM in the test on MOLT-4 leukemia; 45.8 µM with RXF 393 renal. In addition, the TGI in the test with SK-MEL-28 melanoma and with TK-10 renal was above 100 µM each time.
Consider `Cc1cc(N2CCSCC2)nc(NC2CCCC(Nc3ccnc4cc(Cl)ccc34)C2)n1` (stereo unspecified), for which the GI50 is 3.13 µM in the test with DU-145 prostate; 2.7 µM with EKVX NSCLC; 1.8 µM in the test on MALME-3M melanoma; 1.55 µM with MOLT-4 leukemia; 2.01 µM in the test on NCI/ADR-RES ovarian; 1.41 µM in the test with RXF 393 renal. For the same compound, the GI50 is 1.9 µM in the test on SK-MEL-28 melanoma and 2.05 µM in the test with TK-10 renal. The TGI with DU-145 prostate was determined as 12.5 µM; in the test with EKVX NSCLC, 10.8 µM; in the test on MALME-3M melanoma it was 3.43 µM; with MOLT-4 leukemia, 5.34 µM; with NCI/ADR-RES ovarian it was 5.15 µM; in the test with RXF 393 renal, 2.93 µM. For the same compound, the values for the TGI in the test with SK-MEL-28 melanoma and in the test with TK-10 renal were 3.7 µM and 4.58 µM, respectively.
For `CCc1cc(CCC(=O)Nc2c(C)cccc2C)[nH]n1`, the TGI with CAKI-1 renal, in the test with EKVX NSCLC, in the test on HL-60(TB) leukemia, with MALME-3M melanoma, in the test with MOLT-4 leukemia and in the test on RXF 393 renal was above 100 µM each time. Also, the TGI in the test with SK-MEL-28 melanoma and in the test on TK-10 renal was above 100 µM in each case.
Consider `CC(=O)OC1CC2C(C)(C)C(=O)C=C[C@]2(C)C2CCC3(C)C(=CC(=O)C3c3ccoc3)[C@]12C` (stereo partly specified), for which the TGI is above 100 µM in the test on CAKI-1 renal; 37.7 µM in the test with EKVX NSCLC; 34.1 µM with HL-60(TB) leukemia; 34.4 µM in the test with MALME-3M melanoma; 34 µM with MOLT-4 leukemia; 10.1 µM with RXF 393 renal. The TGI in the test on SK-MEL-28 melanoma was found to be 32.6 µM; in the test on TK-10 renal it was 30 µM.
For the compound `O=c1c2cccc3cccc(c4n1CCN=4)c32`, the TGI in the test with CAKI-1 renal, in the test with EKVX NSCLC, with HL-60(TB) leukemia, in the test on MALME-3M melanoma, in the test with MOLT-4 leukemia and in the test on RXF 393 renal was above 100 µM each time. In addition, the TGI was above 100 µM in the test with SK-MEL-28 melanoma and 69.1 µM in the test on TK-10 renal.
